# Assay results: patent US11149036B2, “3-(1H-pyrazol-4-yl)pyridine allosteric modulators of the M4 muscarinic acetylcholine receptor” (Merck Sharp & Dohme Corp., priority 2017, dated 2021)
# Target: T1, human M4 muscarinic acetylcholine receptor (Homo sapiens, UniProt P08173)
# T1 construct: expressed in transfected cells; host or cells: CHO-K1
# T1 sequence (P08173 1-479): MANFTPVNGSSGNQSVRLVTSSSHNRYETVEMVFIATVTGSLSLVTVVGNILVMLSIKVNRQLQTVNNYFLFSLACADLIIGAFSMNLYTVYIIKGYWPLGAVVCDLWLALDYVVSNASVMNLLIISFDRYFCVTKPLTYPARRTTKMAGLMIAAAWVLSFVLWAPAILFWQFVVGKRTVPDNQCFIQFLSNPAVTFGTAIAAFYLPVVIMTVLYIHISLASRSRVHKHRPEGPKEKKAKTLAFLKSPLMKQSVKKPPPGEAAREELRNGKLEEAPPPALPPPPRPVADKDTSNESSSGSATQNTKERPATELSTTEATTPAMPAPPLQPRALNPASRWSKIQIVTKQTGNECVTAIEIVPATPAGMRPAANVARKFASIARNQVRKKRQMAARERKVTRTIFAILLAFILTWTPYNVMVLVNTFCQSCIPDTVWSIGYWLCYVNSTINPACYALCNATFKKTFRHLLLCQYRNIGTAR
# Assay: human FLIPR-based M4 PAM assay (CHO-K1 cells with human M4 receptor and Gaqi5, calcium dye fluorescence)
# Type: cell-based
# Conditions: inflection point (IP) of dose response curve, acetylcholine added at 20% of maximum response, read-out: M4 FLIPPR Hu IP
# Procedure, shortened: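 CHO-K1 cells stably expressing human M4 with chimeric Gaqi5, calcium-dye loaded ~1 h at 37° C; compound added at increasing concentrations 4 min before acetylcholine at an EC20 concentration (sometimes a further EC70 addition).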
row,EC50 [nM],Compound
1,19,"CC1(Cn2cc(-c3cc(F)c(C#N)nc3-c3ccn4cc(CF)nc4c3)cn2)CCCC1 [compound 136, 3-fluoro-6-(2-(fluoro-methyl)imidazo[1,2-a]pyridin-7-yl)-5-(1-((1-methylcyclopentyl)meth-yl)-1H-pyrazol-4-yl)picolinonitrile]"
2,70,"Cn1cnc2cc(-c3nc(F)c(F)cc3-c3cnn(CC4(C)CCCC4)c3)cnc21 [compound 138, 6-(5,6-difluoro-3-(1-((1-methylcyclopentyl)methyl)-1H-pyrazol-4-yl)pyridin-2-yl)-3-methyl-3H-imidazo[4,5-b]pyridine]"
3,29,"COCc1cn2ccc(-c3nc(C#N)ccc3-c3cnn(CC4(C)CCCC4)c3)cc2n1 [compound 156, 6-(2-(methoxymeth-yl)imidazo[1,2-a]pyridin-7-yl)-5-(1-((1-methylcyclopentyl)meth-yl)-1H-pyrazol-4-yl)picolinonitrile]"
